Results reported in US8101760B2, “Glucocorticoid receptor modulator and methods of use” (Eli Lilly and Company, priority 2007, dated 2012).

Tests used:
[1] = In vivo studies of genotoxic potential
serum osteocalcin = assay: Serum osteocalcin assay; type: in vivo, mouse; conditions: mice, oral, seven days; 1 mg/kg/day Compound (I) vs 10 mg/kg/day prednisolone; mean of 6
Source text: Bone loss/osteoporosis and the resulting increased risk of fracture is a common and significant adverse effect that results from glucocorticoid therapy. Glucocorticoid induced osteoporosis is believed to result, at least in part, from an inhibition of bone formation. The measurement of serum osteocalcin, a biological marker of bone synthesis, is a recognized tool for assessing the adverse effects of glucocorticoid therapy on bone. (see Pearce et al., J. Clin. Endocrino. Metab. 83: 801-806, (1998)).
To assess the effects of Compound (I) on bone formation, Compound (I) is formulated in a vehicle comprising 5% carboxymethyl cellulose and 0.25% Tween 80 and administered orally via gavage to sixteen week old male Swiss-Web mice (Harlan Industries, Indianapolis, Ind.) for seven days. For comparison, prednisolone is administered orally in the same vehicle. Serum is collected 24 hours after the last dose and osteocalcin levels are determined using a competitive radioimmunoassay (RIA) kit (Biomedical Technologies, Inc., Stoughton, Mass.) modified to a 96 well format. […] The filters are punched and the radioactivity quantitated on a gamma counter (Cobra II, Packard Instruments, Meriden, Conn.). Radioactivity detected on the filters from test samples is inversely proportional to serum osteocalcin concentration. […]

[2] = tested on: IL-1β-stimulated IL-6 production in human skin fibroblast CCD-39SK cells; assay: GR-mediated transrepression: IL-1β-stimulated IL-6 production in CCD-39SK cells; type: cell-based; conditions: mean of 22 determinations, read-out: EC50, inhibition of IL-6 expression
Experimental: Glucocorticoid Receptor-Mediated Transrepression Assays: 1. IL-1β-Stimulated IL-6 Production in Human Skin Fibroblast CCD-39SK Cells:
Briefly, human skin fibroblast CCD-39SK cells (20,000 cells/well), obtained from the American Type Culture Collection (ATCC), Manassas, Va. U.S.A. (ATCC Catalog #CRL-1501) are seeded in 96-well plates in SF-GM (MEM) medium (ATCC Catalog #30-20030), supplemented with 10% fetal bovine serum (FBS), 100 U/mL penicillin, 100 μg/mL streptomycin and 2 mmol/L L-glutamine. Cells are maintained in a humidified chamber with 5% CO2 at 37° C. Test compounds are added to the wells in various concentrations ranging from a final concentration of about 4.65 pM to 4.64 μM. 0.1 μM of dexamethasone is used as a positive control. 1-hour post treatment with test compound, IL-1β is added at final concentration of 1 ng/mL and the reaction mixture is incubated overnight. IL-6 concentrations are measured with an ELISA Kit (R&D Systems, Inc., Minneapolis, Minn., U.S.A.) using standard techniques. Briefly, take 10 μL of supernatant from each well and add 90 μL of assay buffer. IL-6 concentrations are quantified by reading absorbance at 450 nm. A standard curve of absorbance versus IL-6 concentration is constructed and used to determine the concentration of IL-6 in experimental samples.

reduction in serum osteocalcin levels compared with prednisolone (serum osteocalcin): less reduction
Structure (SMILES): CC/C(=C1\c2ccc(Cl)cc2OCc2ncccc21)c1cccc(NS(C)(=O)=O)c1 [Compound (I), (E)-N-{3-[1-(8-Chloro-11H-10-oxa-1-aza-dibenzo[a,d]cyclohepten-5-ylidene)-propyl]-phenyl}-methanesulfonamide]
genotoxic potential [1]: non-genotoxic | EC50 [2]: ~4.8 nM
